Data from US20260028451A1, “Amido-Amine Hardener” (priority 2022, published 2026).

Key:
[1] = test system: MELN cells; assay type: cell-based, human
Procedure: The use of bisphenol A in epoxy systems is often avoided for this reason. Various phenolic compounds, such as phenolic Mannich bases may also pose a risk of acting as oestrogen agonists, this is thought to be due to structural similarity between the phenolic group and the phenolic group present in oestrogen itself. […]. The tests were performed using MELN cells [hER-stably transfected model of the human breast cancer MCF-7 cells]. The use of MELN cells for screening cytotoxicity and oestrogenic activity is a standard test known in the art, for example, as described in Berckmans P, Leppens H, Vangenechten C, Witters H., “Screening of endocrine disrupting chemicals with MELN cells, an ER-transactivation assay combined with cytotoxicity assessment”, Toxicol In Vitro. 2007, 21(7), 1262-7.

[2] = molecular target: T1, oestrogen receptor (Homo sapiens, UniProt P03372); test: Oestrogenic activity testing using MELN cells (ER-transactivation assay); assay type: cell-based; conditions: hER-stably transfected MCF-7
T1 construct: MELN cells [hER-stably transfected model of the human breast cancer MCF-7 cells]; endogenous in cells; host or cells: MELN cells (MCF-7 human breast cancer cells)
T1 sequence (P03372 1-595): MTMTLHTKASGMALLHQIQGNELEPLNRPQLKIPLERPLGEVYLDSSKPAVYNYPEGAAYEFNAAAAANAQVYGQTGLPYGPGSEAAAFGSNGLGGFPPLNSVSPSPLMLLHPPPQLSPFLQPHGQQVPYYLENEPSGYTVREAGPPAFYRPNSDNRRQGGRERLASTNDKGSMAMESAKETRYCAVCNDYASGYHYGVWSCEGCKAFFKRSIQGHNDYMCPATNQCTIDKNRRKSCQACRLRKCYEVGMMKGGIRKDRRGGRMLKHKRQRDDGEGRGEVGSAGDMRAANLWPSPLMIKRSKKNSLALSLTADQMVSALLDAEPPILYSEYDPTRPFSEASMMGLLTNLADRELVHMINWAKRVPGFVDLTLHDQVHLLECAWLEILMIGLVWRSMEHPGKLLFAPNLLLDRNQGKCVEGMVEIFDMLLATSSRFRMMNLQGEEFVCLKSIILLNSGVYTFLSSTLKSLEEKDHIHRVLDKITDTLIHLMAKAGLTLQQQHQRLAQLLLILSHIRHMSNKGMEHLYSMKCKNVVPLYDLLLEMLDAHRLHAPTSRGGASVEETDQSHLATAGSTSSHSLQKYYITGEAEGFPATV
Procedure: Various phenolic compounds, such as phenolic Mannich bases may also pose a risk of acting as oestrogen agonists, this is thought to be due to structural similarity between the phenolic group and the phenolic group present in oestrogen itself. […] The tests were performed using MELN cells [hER-stably transfected model of the human breast cancer MCF-7 cells].

[3] = Viscosity at 25° C., ASTM D2556-14(2018); assay type: physicochemical; conditions: undiluted curative composition / product as prepared
Procedure: This material was then diluted with benzyl alcohol in order to reduce the viscosity. The relationship between the viscosity (as measured by ASTM D2556-14(2018)) and the vol % dilution with benzyl alcohol is shown in FIG. 1. […] The properties of a 63:37 vol/vol mixture of salicylamide Mannich base C:benzyl alcohol are shown below in Table 7.

Compound	Cytotoxicity [1]	Agonist response [2]	Viscosity at 25° C. [3] [m · Pas]
C[C@]12CC[C@@H]3c4ccc(O)cc4CC[C@H]3[C@@H]1CC[C@@H]2O [17β- oestradiol, 17β-oestradiol]	No	–	–
CC(C)(c1ccc(O)cc1)c1ccc(O)cc1 [Bisphenol A, bisphenol A]	No	Positive	–
NCCNCCNCCNCc1cc(CNCCNCCNCCN)c(O)c(C(=O)NCCNCCNCCN)c1 [Salicylamide Mannich Base A]	No	Negative	1130
